# Experimental data as given in patent US8084479B2, “Thiazole compounds and methods of use” (Amgen Inc., priority 2006, dated 2011).
# Target: PKBα (Homo sapiens, UniProt P31749)
# Assay: PKB kinase assay (P33-labeled ATP, peptide substrate, filter plate)
# Format: biochemical
# Settings: PKBα enzyme (full length or kinase domain with pleckstrin domain deleted)
# Source text: The kinase assay for evaluating PKB activity comprises active PKB enzymes, a PKB specific substrate, and P^33-labeled ATP. […] The phosphorylated substrate was captured by a phosphocellulose membrane filter plate (MLLIPORE) and measured by a Wallac Microbeta liquid scintillation counter (Perkin Elmer).
# Chain of PKBα (P31749 118-480 limits assumed): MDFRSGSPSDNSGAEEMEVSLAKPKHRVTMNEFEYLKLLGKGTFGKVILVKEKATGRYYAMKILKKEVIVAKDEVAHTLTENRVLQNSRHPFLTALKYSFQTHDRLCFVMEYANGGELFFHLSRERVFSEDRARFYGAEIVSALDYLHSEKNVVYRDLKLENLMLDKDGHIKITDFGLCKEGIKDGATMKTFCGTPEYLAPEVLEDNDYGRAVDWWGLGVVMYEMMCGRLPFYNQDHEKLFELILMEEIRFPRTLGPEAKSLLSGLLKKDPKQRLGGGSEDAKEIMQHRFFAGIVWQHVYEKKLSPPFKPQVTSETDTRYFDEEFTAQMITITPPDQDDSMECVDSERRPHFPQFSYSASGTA
row,Structure (SMILES),IC50
1,"COCc1nc(N(C[C@H](Cc2ccc(C(F)(F)F)cc2)NCCN2CCOCC2)C(C)=O)sc1-c1nc2ccncc2s1 [Example 33, N-(4-(methoxymethyl)-5-(thiazolo[5,4-c]pyridin-2-yl)thiazol-2-yl)-N—((S)-2-(2-morpholinoethylamino)-3-(4-(trifluoromethyl)phenyl)propyl)acetamide]",> 10000 nM
2,"COCc1nc(N(C[C@@H](N)Cc2cccc(Cl)c2)C(C)=O)sc1-c1nc2ccncc2s1 [Example 17, N—((S)-2-amino-3-(3-chlorophenyl)propyl)-N-(4-(methoxymethyl)-5-(thiazolo[5,4-c]pyridin-2-yl)thiazol-2-yl)acetamide]",1000 to 10000 nM
3,"C[C@@H](Nc1ncc(-c2ccc3c(c2)CC(=O)N3)s1)[C@@H](N)Cc1ccc(C(F)(F)F)cc1 [Example 229, 5-(2-((2R,3S)-3-amino-4-(4-(trifluoromethyl)phenyl)butan-2-ylamino)thiazol-5-yl)indolin-2-one]",< 50 nM
4,N[C@H](CNc1ncc(-c2ccc3cnccc3c2)s1)Cc1ccc(C(F)(F)F)nc1 [Example 170],< 50 nM
5,"N[C@H](CNc1nc(C#CCO)c(-c2ccc3c(c2)CC(=O)N3)s1)Cc1ccc(C(F)(F)F)cc1 [Example 145, 5-(2-((S)-2-amino-3-(4-(trifluoromethyl)phenyl)propylamino)-4-(3-hydroxyprop-1-ynyl)thiazol-5-yl)indolin-2-one]",< 50 nM
6,COc1cc(C[C@H](N)CNc2ncc(-c3ccc4cnccc4c3)s2)cnc1C(F)(F)F [Example 173],< 50 nM
7,"N[C@H](CNc1nc(CCO)c(-c2ccc3cnccc3c2)s1)Cc1ccc(C(F)(F)F)cc1 [Example 255, 2-(2-((S)-2-amino-3-(4-(trifluoromethyl)phenyl)propylamino)-5-(isoquinolin-6-yl)thiazol-4-yl)ethanol]",50 to 1000 nM
8,"COCc1nc(NC[C@@H](N)Cc2ccc(Cl)cc2)sc1-c1nc2ccncc2s1 [Example 19, N—((S)-2-amino-3-(4-chlorophenyl)propyl)-4-(methoxymethyl)-5-(thiazolo[5,4-c]pyridin-2-yl)thiazol-2-amine]",< 50 nM
9,"COc1ccc(CC(N)CNc2ncc(-c3ccc4c(c3)CC(=O)N4)s2)cc1F (stereo not shown) [Example 130, 5-(2-(2-Amino-3-(3-fluoro-4-methoxyphenyl)propylamino)thiazol-5-yl)indolin-2-one]",50 to 1000 nM
10,"N[C@H](CNc1nc(C2CCCO2)c(-c2ccc3cnccc3c2)s1)Cc1ccc(Cl)cc1 (stereo partly drawn) [Example 196, N—((S)-2-amino-3-(4-chlorophenyl)propyl)-5-(isoquinolin-6-yl)-4-(tetrahydrofuran-2-yl)thiazol-2-amine]",50 to 1000 nM
11,"N[C@@H](CNc1ncc(-c2ccc3[nH]c(=O)oc3c2)s1)Cc1ccc(C(F)(F)F)c(F)c1 [Example 182, 6-(2-((R)-2-amino-3-(3-fluoro-4-(trifluoromethyl)phenyl)propylamino)thiazol-5-yl)benzo[d]oxazol-2(3H)-one]",50 to 1000 nM
12,"C[C@@H](c1ccc(C(F)(F)F)cc1)[C@H](N)CNc1ncc(-c2ccc3cnccc3c2)s1 [Example 110, N-((2S,3S)-2-Amino-3-(4-(trifluoromethyl)phenyl)butyl)-5-(isoquinolin-6-yl)thiazol-2-amine]",< 50 nM
13,"COCc1nc(NC[C@@H](N)Cc2ccc(C(F)(F)F)cc2)sc1-c1nc2ccncc2s1 [Example 22, N—((S)-2-amino-3-(4-(trifluoromethyl)phenyl)propyl)-4-(methoxymethyl)-5-(thiazolo[5,4-c]pyridin-2-yl)thiazol-2-amine]",< 50 nM
14,"C/C=C/[C@@H](c1ccc(C(F)(F)F)cc1)[C@H](N)CNc1ncc(-c2ccc3c(c2)CC(=O)N3)s1 [Example 155, 5-(2-((2S,3S,E)-2-amino-3-(4-(trifluoromethyl)phenyl)hex-4-enylamino)thiazol-5-yl)indolin-2-one]",< 50 nM
15,"N[C@H](CNc1ncc(-c2ccc3c(c2)CC(=O)N3)s1)Cc1ccc(Cl)s1 [Example 212, 5-(2-((S)-2-amino-3-(5-chlorothiophen-2-yl)propylamino)thiazol-5-yl)indolin-2-one]",50 to 1000 nM
16,"CC(O)[C@@H](c1ccc(C(F)(F)F)cc1)[C@H](N)CNc1ncc(-c2ccc3c(c2)CC(=O)N3)s1 (stereo partly drawn) [Example 243, 5-(2-((2S,3S)-2-amino-4-hydroxy-3-(4-(trifluoromethyl)phenyl)pentylamino)thiazol-5-yl)indolin-2-one]",< 50 nM
17,"N[C@H](CNc1ncc(-c2ccc3c(c2)CC(=O)N3)s1)Cc1ccc(Cl)c(F)c1 [Example 86, 5-(2-((S)-2-Amino-3-(4-chloro-3-fluorophenyl)propylamino)thiazol-5-yl)indolin-2-one]",< 50 nM
18,"CNC(=O)c1nc(NC[C@@H](N)Cc2ccc(C(F)(F)F)cc2)sc1-c1ccc2cnccc2c1 [Example 120, 2-((S)-2-amino-3-(4-(trifluoromethyl)phenyl)-propylamino)-5-(isoquinolin-6-yl)-N-methylthiazole-4-carboxamide]",< 50 nM
19,"Cn1c(=O)[nH]c2ccc(-c3sc(NC[C@@H](N)Cc4ccc(C(F)(F)F)cc4)nc3-c3ccccc3F)cc21 [Example 249, 6-(2-((S)-2-amino-3-(4-(trifluoromethyl)phenyl)propylamino)-4-(2-fluorophenyl)thiazol-5-yl)-1-methyl-1H-benzo[d]imidazol-2(3H)-one]",1000 to 10000 nM
20,"N[C@H](CNc1nc(-c2ccc(F)c(F)c2)c(-c2ccc3cnccc3c2)s1)Cc1ccc(C(F)(F)F)cc1 [Example 101, N—((S)-2-Amino-3-(4-(trifluoromethyl)phenyl)propyl)-4-(3,4-difluorophenyl)-5-(isoquinolin-6-yl)thiazol-2-amine]",50 to 1000 nM
21,"CC(=O)N[C@H](CNc1ncc(-c2ccc3c(c2)CC(=O)N3)s1)Cc1ccc(C(F)(F)F)cc1 [Example 128, N—((S)-1-(5-(2-Oxoindolin-5-yl)thiazol-2-ylamino)-3-(4-(trifluoro-methyl)phenyl)propan-2-yl)acetamide]",1000 to 10000 nM
22,"NC(CNc1ncc(-c2ccc3c(c2)CC(=O)N3)s1)Cc1ccc(O)c(F)c1 (stereo not shown) [Example 217, 5-(2-(2-Amino-3-(3-fluoro-4-hydroxyphenyl)propylamino)thiazol-5-yl)indolin-2-one]",50 to 1000 nM
23,"COc1cc(C[C@H](N)CNc2ncc(-c3ccc4c(c3)CC(=O)N4)s2)ccc1C(F)(F)F [Example 206, 5-(2-((S)-2-amino-3-(3-methoxy-4-(trifluoromethyl)phenyl)propylamino)thiazol-5-yl)indolin-2-one]",< 50 nM
24,"COC(=O)c1nc(NC[C@@H](N)Cc2ccc(C(F)(F)F)cc2)sc1-c1ccc2[nH]c(=O)oc2c1 [Example 124, Methyl 2-((S)-2-Amino-3-(4-(trifluoromethyl)phenyl)propylamino)-5-(2-oxo-2,3-dihydrobenzo[d]oxazol-6-yl)thiazole-4-carboxylate]",< 50 nM

# Other lines, results leading:
row,IC50,Structure (SMILES)
1,50 to 1000 nM,"Cc1n[nH]c2ccc(-c3cnc(NC[C@@H](N)Cc4ccccc4)s3)cc12 [Example 1, N—((S)-2-amino-3-phenylpropyl)-5-(3-methyl-1H-indazol-5-yl)thiazol-2-amine]"
2,50 to 1000 nM,"COc1ccc(C[C@H](N)CNc2ncc(-c3ccc4[nH]c(=O)oc4c3)s2)cc1 [Example 78, 6-(2-((S)-2-amino-3-(4-methoxyphenyl)propylamino)thiazol-5-yl)benzo[d]oxazol-2(3H)-one]"
3,< 50 nM,"N[C@H](CNc1ncc(-c2ccc3c(c2)CC(=O)N3)s1)Cc1ccc(Cl)c(Cl)c1 [Example 114, 5-(2-((S)-2-Amino-3-(3,4-dichlorophenyl)propylamino)thiazol-5-yl)indolin-2-one]"
4,1000 to 10000 nM,"Nc1n[nH]c2ccc(-c3cnc(NC[C@@H](N)Cc4c[nH]c5ccccc45)s3)cc12 [Example 37, 5-(2-((S)-2-amino-3-(1H-indol-3-yl)propylamino)thiazol-5-yl)-1H-indazol-3-amine]"
5,50 to 1000 nM,"N[C@H](CNc1ncc(-c2ccc3[nH]c(=O)oc3c2)s1)Cc1c[nH]c2ccccc12 [Example 39, 6-(2-((S)-2-amino-3-(1H-indol-3-yl)propylamino)thiazol-5-yl)benzo[d]oxazol-2(3H)-one]"
6,< 50 nM,"N[C@H](CNc1ncc(-c2ccc3c(c2)CC(=O)N3)s1)Cc1ccc(C(F)(F)F)cc1 [Example 42, 5-(2-((S)-2-amino-3-(4-(trifluoromethyl)phenyl)propylamino)thiazol-5-yl)indolin-2-one]"
7,50 to 1000 nM,"N[C@H](CNc1ncc(-c2ccc3c(c2)CC(=O)N3)s1)Cc1cccc(C(F)(F)F)c1 [Example 44, 5-(2-((S)-2-amino-3-(3-(trifluoromethyl)phenyl)propylamino)thiazol-5-yl)indolin-2-one]"
8,50 to 1000 nM,"CC1C(=O)Nc2ccc(-c3cnc(NC[C@@H](N)Cc4ccc(C(F)(F)F)cc4)s3)cc21 (stereo partly drawn) [Example 47, 5-(2-((S)-2-amino-3-(4-(trifluoromethyl)phenyl)propylamino)thiazol-5-yl)-3-methylindolin-2-one]"
9,< 50 nM,"N[C@H](CNc1ncc(-c2ccc3cnccc3c2)s1)Cc1ccc(C(F)(F)F)cc1 [Example 6, N—((S)-2-amino-3-(4-(trifluoromethyl)phenyl)propyl)-5-(isoquinolin-6-yl)thiazol-2-amine]"
10,50 to 1000 nM,"Cc1n[nH]c2ccc(-c3cnc(NC[C@@H](N)Cc4ccc(Cl)cc4)s3)cc12 [Example 3, N—((S)-2-amino-3-(4-chlorophenyl)propyl)-5-(3-methyl-1H-indazol-5-yl)thiazol-2-amine]"
11,50 to 1000 nM,"Cn1c(=O)[nH]c2ccc(-c3cnc(NC[C@@H](N)Cc4cccc(C(F)(F)F)c4)s3)cc21 [Example 82, 6-(2-((S)-2-Amino-3-(3-(trifluoromethyl)phenyl)-propylamino)thiazol-5-yl)-1-methyl-1H-benzo[d]imidazol-2(3H)-one]"
12,50 to 1000 nM,"Cc1ccc(C[C@H](N)CNc2ncc(-c3ccc4c(c3)CC(=O)N4)s2)cc1 [Example 116, 5-(2-((S)-2-Amino-3-p-tolylpropylamino)thiazol-5-yl)indolin-2-one]"
13,50 to 1000 nM,"COc1ccc(CC(N)CNc2ncc(-c3ccc4cnccc4c3)s2)cc1F (stereo not shown) [Example 131, N-(2-Amino-3-(3-fluoro-4-methoxyphenyl)propyl)-5-(isoquinolin-6-yl)thiazol-2-amine]"
